The values that follow come from ChEMBL document CHEMBL5360532, “Current scenario of quinolone hybrids with potential antibacterial activity against ESKAPE pathogens” (Eur J Med Chem, 2023).

The structures appear in SMILES notation. Values after ≈ are worked out from the molar mass of the structure shown.

Holding throughout (format): functional
For test [1], the system named is Staphylococcus aureus. Nature of the test: Antibacterial activity against Staphylococcus aureus assessed as bacterial growth inhibition measured after 16 to 24 hrs by broth microdilution assay. The conditions noted are these: time 16-24 hrs. For orientation: Dilution methods test growth across graded concentrations, often in twofold steps.
The subject of test [2] is Staphylococcus aureus. Nature of the test: Antibacterial activity against methicillin resistant Staphylococcus aureus assessed as bacterial growth inhibition measured after 16 to 24 hrs by broth microdilution assay. The conditions noted are these: time 16-24 hrs.
Test [3] deals with Enterococcus. The test is described as follows: Antibacterial activity against vancomycin resistant Enterococcus assessed as bacterial growth inhibition measured after 16 to 24 hrs by broth microdilution assay. The conditions noted are these: time 16-24 hrs.
In test [4] the test system is Streptococcus pneumoniae. Nature of the test: Antibacterial activity against Streptococcus pneumoniae assessed as bacterial growth inhibition measured after 16 to 24 hrs by broth microdilution assay. Conditions: time 16-24 hrs.
Test [5] has as its system Streptococcus agalactiae. Nature of the test: Antibacterial activity against Streptococcus agalactiae assessed as bacterial growth inhibition measured after 16 to 24 hrs by broth microdilution assay. The conditions noted are these: time 16-24 hrs.
In test [6] the test system is Enterococcus faecalis. Nature of the test: Antibacterial activity against Enterococcus faecalis assessed as bacterial growth inhibition measured after 16 to 24 hrs by broth microdilution assay. Conditions: time 16-24 hrs.
In test [7] the test system is Haemophilus influenzae. The test is described as follows: Antibacterial activity against Haemophilus influenzae assessed as bacterial growth inhibition measured after 16 to 24 hrs by broth microdilution assay. The conditions noted are these: time 16-24 hrs.
In test [8] the test system is Staphylococcus aureus. The test is described as follows: Antibacterial activity against Staphylococcus aureus clinical isolates assessed as bacterial growth inhibition measured after 16 to 24 hrs by broth microdilution assay. The conditions noted are these: time 16-24 hrs.
Test [9] concerns Staphylococcus haemolyticus. The test is described as follows: Antibacterial activity against Staphylococcus haemolyticus clinical isolates assessed as bacterial growth inhibition measured after 16 to 24 hrs by broth microdilution assay. Conditions: time 16-24 hrs.
The subject of test [10] is Staphylococcus epidermidis. Nature of the test: Antibacterial activity against Staphylococcus epidermidis clinical isolates assessed as bacterial growth inhibition measured after 16 to 24 hrs by broth microdilution assay. Conditions: time 16-24 hrs.
The test system of test [11] is Streptococcus suis. Nature of the test: Antibacterial activity against Streptococcus suis clinical isolates assessed as bacterial growth inhibition measured after 16 to 24 hrs by broth microdilution assay. The conditions noted are these: time 16-24 hrs.
The subject of test [12] is Streptococcus pneumoniae. The test is described as follows: Antibacterial activity against Streptococcus pneumoniae clinical isolates assessed as bacterial growth inhibition measured after 16 to 24 hrs by broth microdilution assay. Conditions: time 16-24 hrs.
The subject of test [13] is Enterococcus faecalis. The test is described as follows: Antibacterial activity against Enterococcus faecalis clinical isolates assessed as bacterial growth inhibition measured after 16 to 24 hrs by broth microdilution assay. Conditions: time 16-24 hrs.
Test [14] has as its system Enterococcus faecium. Nature of the test: Antibacterial activity against Enterococcus faecium clinical isolates assessed as bacterial growth inhibition measured after 16 to 24 hrs by broth microdilution assay. Conditions: time 16-24 hrs.
For test [15], the system named is Haemophilus parasuis. Nature of the test: Antibacterial activity against Haemophilus parasuis clinical isolates assessed as bacterial growth inhibition measured after 16 to 24 hrs by broth microdilution assay. The conditions noted are these: Glaesserella parasuis; time 16-24 hrs.
Test [16] deals with Staphylococcus aureus. Nature of the test: Antibacterial activity against Staphylococcus aureus MTCC 737 assessed as bacterial growth inhibition measured after 24 hrs by microdilution assay.
The subject of test [17] is Staphylococcus aureus. The test is described as follows: Antibacterial activity against Staphylococcus aureus MLS16 MTCC 2940 assessed as bacterial growth inhibition measured after 24 hrs by microdilution assay.
Test [18] concerns Escherichia coli. The test is described as follows: Antibacterial activity against Escherichia coli MTCC 1687 assessed as bacterial growth inhibition measured after 24 hrs by microdilution assay.
Test [19] relates to Pseudomonas aeruginosa. The test is described as follows: Antibacterial activity against Pseudomonas aeruginosa MTCC 424 assessed as bacterial growth inhibition measured after 24 hrs by microdilution assay.
For test [20], the system named is Escherichia coli. The test is described as follows: Potency index, ratio of ciprofloxacin MIC to test compound MIC for antimicrobial activity against Escherichia coli MTCC 1687 assessed as bacterial growth inhibition measured after 24 hrs by microdilution assay.
Test [21] has as its system Staphylococcus aureus. Nature of the test: Potency index, ratio of ciprofloxacin MIC to test compound MIC for antimicrobial activity against Staphylococcus aureus MLS16 MTCC 2940 assessed as bacterial growth inhibition measured after 24 hrs by microdilution assay.
Test [22] deals with Staphylococcus aureus. Nature of the test: Potency index, ratio of ciprofloxacin MIC to test compound MIC for antimicrobial activity against Staphylococcus aureus MTCC 424 assessed as bacterial growth inhibition measured after 24 hrs by microdilution assay.

For the compound `C[C@H]1CCc2c(N3CCC(O)(COc4ccc(N5C[C@H](CO)OC5=O)cc4F)CC3)c(F)cc3c(=O)c(C(=O)O)cn1c23`, the MIC in [1], in test [2], in test [3], in [4], in [5] and in [6] was 0.016 µg/mL (≈ 0.0267 µM) throughout. Further, the MIC in test [7] was 0.016 µg/mL (≈ 0.0267 µM); in test [8], no more than 0.063 µg/mL; in test [9], no more than 0.063 µg/mL; in test [10] it was no more than 0.063 µg/mL; in test [11], no more than 0.063 µg/mL; in test [12] it was no more than 0.063 µg/mL. Further, the MIC in test [13], in test [14] and in test [15] was no more than 0.063 µg/mL throughout.

As to `COc1ccc(-c2cc(-c3c(O)c4ccccc4[nH]c3=O)nc(N)c2C#N)cc1`, the MIC in test [16], in test [17], in test [18] and in test [19] was 2.34 µg/mL (≈ 6.09 µM) each time. For the same compound, the Ratio in [20], in test [21] and in test [22] was 2 each time.
